Source: publication PMC9983627 (Drugs in Context, 2023)

Assays:
Experiment in all cases: receptor-ligand binding
5-HT2C = target: T1, 5-HT2C (Homo sapiens, UniProt P28335)
T1 sequence (P28335 33-458): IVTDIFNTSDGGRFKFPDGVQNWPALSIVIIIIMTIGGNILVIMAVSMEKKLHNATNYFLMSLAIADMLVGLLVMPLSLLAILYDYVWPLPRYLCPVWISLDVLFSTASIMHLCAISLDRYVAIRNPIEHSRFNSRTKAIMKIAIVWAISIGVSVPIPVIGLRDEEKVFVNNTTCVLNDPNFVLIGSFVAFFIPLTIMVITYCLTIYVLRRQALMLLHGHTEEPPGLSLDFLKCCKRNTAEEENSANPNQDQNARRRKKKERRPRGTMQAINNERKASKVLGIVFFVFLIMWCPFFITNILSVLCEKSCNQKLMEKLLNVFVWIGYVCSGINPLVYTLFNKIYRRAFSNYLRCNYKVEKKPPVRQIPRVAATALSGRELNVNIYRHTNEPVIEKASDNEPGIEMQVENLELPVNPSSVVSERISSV

Human D2 = Human D2 (Homo sapiens, UniProt P14416); settings: read-out: Ki (μM) / Human D2
Human D2, sequence (P14416 whole entry): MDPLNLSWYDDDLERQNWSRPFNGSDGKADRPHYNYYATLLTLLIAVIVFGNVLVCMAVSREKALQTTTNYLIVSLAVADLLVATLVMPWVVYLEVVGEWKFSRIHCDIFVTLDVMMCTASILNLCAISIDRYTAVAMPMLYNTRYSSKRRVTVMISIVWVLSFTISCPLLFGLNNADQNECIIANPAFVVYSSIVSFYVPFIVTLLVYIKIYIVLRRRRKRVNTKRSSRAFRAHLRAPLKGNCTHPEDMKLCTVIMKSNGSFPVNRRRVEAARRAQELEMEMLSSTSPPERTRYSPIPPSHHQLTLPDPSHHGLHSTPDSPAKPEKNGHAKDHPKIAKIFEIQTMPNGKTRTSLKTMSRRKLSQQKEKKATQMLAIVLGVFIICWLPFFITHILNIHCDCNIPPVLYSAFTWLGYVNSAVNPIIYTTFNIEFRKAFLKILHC

m5-HT3 = target: T2, m5-HT3 (Mus musculus, UniProt P23979); settings: given as a range
T2 sequence (P23979 24-489): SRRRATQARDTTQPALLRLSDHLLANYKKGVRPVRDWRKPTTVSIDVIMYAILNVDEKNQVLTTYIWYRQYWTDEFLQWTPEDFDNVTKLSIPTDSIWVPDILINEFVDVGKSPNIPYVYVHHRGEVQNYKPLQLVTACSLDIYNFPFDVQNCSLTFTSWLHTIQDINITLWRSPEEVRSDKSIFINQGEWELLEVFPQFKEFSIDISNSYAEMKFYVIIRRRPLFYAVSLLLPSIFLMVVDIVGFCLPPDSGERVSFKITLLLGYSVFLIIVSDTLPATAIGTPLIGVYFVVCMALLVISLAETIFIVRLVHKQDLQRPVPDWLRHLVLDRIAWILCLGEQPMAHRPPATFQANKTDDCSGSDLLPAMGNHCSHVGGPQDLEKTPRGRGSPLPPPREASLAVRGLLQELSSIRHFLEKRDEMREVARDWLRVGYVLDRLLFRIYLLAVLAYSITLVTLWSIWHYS

hD4 = target: T3, hD4 (Homo sapiens, UniProt P21917); settings: given as a range
T3 sequence (P21917 1-419): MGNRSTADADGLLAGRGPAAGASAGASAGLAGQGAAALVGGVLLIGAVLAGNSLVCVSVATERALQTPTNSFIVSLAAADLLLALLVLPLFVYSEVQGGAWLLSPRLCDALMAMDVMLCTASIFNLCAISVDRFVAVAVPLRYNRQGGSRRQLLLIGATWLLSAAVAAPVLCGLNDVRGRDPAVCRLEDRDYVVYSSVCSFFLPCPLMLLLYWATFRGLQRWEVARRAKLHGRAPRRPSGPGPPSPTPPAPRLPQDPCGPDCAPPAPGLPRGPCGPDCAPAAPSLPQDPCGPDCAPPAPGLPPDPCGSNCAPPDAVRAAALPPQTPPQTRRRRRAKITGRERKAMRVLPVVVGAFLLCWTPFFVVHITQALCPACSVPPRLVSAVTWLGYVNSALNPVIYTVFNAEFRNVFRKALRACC

Rat D2 = Rat D2 (Rattus norvegicus, UniProt P61169); settings: read-out: Ki (μM) / Rat D2
Rat D2, sequence (P61169 whole entry): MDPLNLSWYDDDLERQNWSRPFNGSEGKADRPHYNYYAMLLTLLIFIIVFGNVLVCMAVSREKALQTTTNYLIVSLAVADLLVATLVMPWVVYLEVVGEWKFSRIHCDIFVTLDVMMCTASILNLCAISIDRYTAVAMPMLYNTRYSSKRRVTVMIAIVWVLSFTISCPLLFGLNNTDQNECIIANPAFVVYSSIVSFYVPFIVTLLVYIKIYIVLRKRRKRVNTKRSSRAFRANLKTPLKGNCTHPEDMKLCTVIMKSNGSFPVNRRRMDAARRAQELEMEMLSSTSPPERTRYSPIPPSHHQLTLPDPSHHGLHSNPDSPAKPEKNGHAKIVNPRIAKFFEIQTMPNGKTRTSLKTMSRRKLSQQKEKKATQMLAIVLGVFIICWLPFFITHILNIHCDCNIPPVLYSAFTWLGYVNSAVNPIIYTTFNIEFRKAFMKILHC

5-HT2A = 5-HT2A (Homo sapiens, UniProt P28223)
5-HT2A, sequence (P28223 whole entry): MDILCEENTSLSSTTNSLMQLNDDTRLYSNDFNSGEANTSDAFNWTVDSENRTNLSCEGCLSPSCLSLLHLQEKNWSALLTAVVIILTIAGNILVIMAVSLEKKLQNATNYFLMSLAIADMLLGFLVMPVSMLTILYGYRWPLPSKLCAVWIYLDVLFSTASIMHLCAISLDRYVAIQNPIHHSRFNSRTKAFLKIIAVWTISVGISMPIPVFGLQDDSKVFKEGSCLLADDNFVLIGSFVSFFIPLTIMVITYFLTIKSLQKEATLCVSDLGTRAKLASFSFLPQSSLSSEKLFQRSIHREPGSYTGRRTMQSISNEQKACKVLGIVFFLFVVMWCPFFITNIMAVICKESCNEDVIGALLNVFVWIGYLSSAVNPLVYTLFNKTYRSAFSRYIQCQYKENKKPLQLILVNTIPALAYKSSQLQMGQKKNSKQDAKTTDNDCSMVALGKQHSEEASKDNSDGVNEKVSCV

5-HT2B = 5-HT2B (Homo sapiens, UniProt P41595)
5-HT2B, sequence (P41595 whole entry): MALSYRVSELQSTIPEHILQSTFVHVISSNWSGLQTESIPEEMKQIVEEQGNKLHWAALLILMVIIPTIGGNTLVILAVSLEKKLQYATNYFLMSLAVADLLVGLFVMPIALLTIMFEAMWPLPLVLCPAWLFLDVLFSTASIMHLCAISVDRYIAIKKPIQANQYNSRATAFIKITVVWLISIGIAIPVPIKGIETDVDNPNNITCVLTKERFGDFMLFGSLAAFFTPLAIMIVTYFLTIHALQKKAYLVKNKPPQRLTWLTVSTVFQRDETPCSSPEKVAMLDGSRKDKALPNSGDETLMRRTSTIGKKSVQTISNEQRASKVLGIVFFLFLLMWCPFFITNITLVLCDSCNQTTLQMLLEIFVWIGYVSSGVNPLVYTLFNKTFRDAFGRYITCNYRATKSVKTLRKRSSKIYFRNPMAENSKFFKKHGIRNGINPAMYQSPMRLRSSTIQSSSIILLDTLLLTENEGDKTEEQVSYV

h5-HT4B = h5-HT4B (Homo sapiens, UniProt Q13639)
h5-HT4B, sequence (Q13639 whole entry): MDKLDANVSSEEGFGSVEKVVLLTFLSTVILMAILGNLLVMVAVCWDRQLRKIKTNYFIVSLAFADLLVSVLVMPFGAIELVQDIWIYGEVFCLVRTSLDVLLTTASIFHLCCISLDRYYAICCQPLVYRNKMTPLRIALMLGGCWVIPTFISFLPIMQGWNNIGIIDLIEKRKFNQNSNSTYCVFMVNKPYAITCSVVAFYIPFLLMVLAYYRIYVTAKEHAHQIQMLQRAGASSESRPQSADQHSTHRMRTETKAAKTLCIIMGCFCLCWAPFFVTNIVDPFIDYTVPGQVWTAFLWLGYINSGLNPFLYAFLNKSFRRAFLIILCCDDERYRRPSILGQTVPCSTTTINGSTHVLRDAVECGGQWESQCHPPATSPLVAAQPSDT

Ki (5-HT2C)	Ki (Human D2)	Ki (m5-HT3)	Ki (hD4)	Ki (Rat D2)	Ki (5-HT2A)	Ki (5-HT2B)	Ki (h5-HT4B)	SMILES
41 µM	14 µM	3.5 to 3.8 µM	1.6 to 2.4 µM	6 µM	30 µM	–	–	COCCCN1CCC(NC(=O)c2cc(Cl)c(N)c3c2OCC3)CC1 [Prucalopride]
211 µM	235 µM	–	–	138 µM	136 µM	10 µM	0.074 µM	Nc1c(Cl)cc(C(=O)NC2CCN(CCC(=O)O)CC2)c2c1CCO2 [R107504]
